According to the supplement of paper PMC10627819:

How the values were obtained:
S. aureus DSM 20231 [1] = assay: Bliss interaction score (quartile over a dose matrix) (fitness difference); higher = more antagonism (negative = synergy)
Outline: (§1)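 The Bliss score is observed minus expected fitness, where expected fitness is the product of the single-drug fitness values inferred from the combination data. Fitness is the OD595 at the onset of stationary phase over the plate's robust no-drug mean, capped at 1. Scores are summarised by quartiles over technical, biological and donor/recipient replicates.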

S. aureus Newman [2] = assay: as above
Outline: as §1

B. subtilis 168 = assay: as above
Outline: as §1

S. pneumoniae D39V [3] = assay: as above
Outline: as §1

S. aureus DSM 20231 [4] = assay: fitness (endpoint OD595 vs no drug) (fraction); higher = more growth
Outline: (§2)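 Fitness compares growth at the stationary-phase transition with the robust mean of no-drug control wells, as a ratio of optical densities. The ratio is capped at 1. Wells of 384-well plates held 30 µl, or 55 µl for S. pneumoniae, inoculated at OD595 0.01. Readings at OD595 every 30 min for 14 h at 37 °C were corrected against the first reading.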

S. aureus Newman [5] = assay: as above
Outline: as §2

S. pneumoniae D39V [6] = assay: as above
Outline: as §2
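Throughout, for Bliss interaction score (quartile over a dose matrix): first quartile when negative (synergy) and third quartile when positive (antagonism).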
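Throughout, for fitness (endpoint OD595 vs no drug): OD595 on entry to stationary phase over no-drug wells; at most 1.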

CO/N=C(\C(=O)N[C@@H]1C(=O)N2C(C(=O)[O-])=C(C[N+]3(C)CCCC3)CS[C@H]12)c1csc(N)n1 [Cefepime] + COc1c(N2C[C@@H]3CCCN[C@@H]3C2)c(F)cc2c(=O)c(C(=O)O)cn(C3CC3)c12 [Moxifloxacin]
Settings | Bliss interaction score
B. subtilis 168 | 0.0325
S. aureus DSM 20231 [1] | -0.101
S. aureus Newman [2] | 0.0732
S. pneumoniae D39V [3] | -0.0484

Settings | fitness
S. aureus DSM 20231 [4], first compound 0.125 µg/mL, partner 0.0075 µg/mL | 0.664
S. aureus DSM 20231 [4], first compound 0.125 µg/mL, partner 0.015 µg/mL | 0.681
S. aureus DSM 20231 [4], first compound 0.125 µg/mL, partner 0.03 µg/mL | 0.616
S. aureus DSM 20231 [4], first compound 0.25 µg/mL, partner 0.0075 µg/mL | 0.69
S. aureus DSM 20231 [4], first compound 0.25 µg/mL, partner 0.015 µg/mL | 0.682
S. aureus DSM 20231 [4], first compound 0.25 µg/mL, partner 0.03 µg/mL | 0.592
S. aureus DSM 20231 [4], first compound 0.5 µg/mL, partner 0.0075 µg/mL | 0.766
S. aureus DSM 20231 [4], first compound 0.5 µg/mL, partner 0.015 µg/mL | 0.641
S. aureus DSM 20231 [4], first compound 0.5 µg/mL, partner 0.03 µg/mL | 0.565
S. aureus Newman [5], first compound 0.125 µg/mL, partner 0.0075 µg/mL | 0.748
S. aureus Newman [5], first compound 0.125 µg/mL, partner 0.015 µg/mL | 0.616
S. aureus Newman [5], first compound 0.25 µg/mL, partner 0.0075 µg/mL | 0.738
S. aureus Newman [5], first compound 0.25 µg/mL, partner 0.015 µg/mL | 0.615
S. aureus Newman [5], first compound 0.5 µg/mL, partner 0.0075 µg/mL | 0.695
S. pneumoniae D39V [6], first compound 0.007 µg/mL, partner 0.0312 µg/mL | 0.146
S. pneumoniae D39V [6], first compound 0.007 µg/mL, partner 0.0625 µg/mL | 0.0456
S. pneumoniae D39V [6], first compound 0.007 µg/mL, partner 0.125 µg/mL | 0.0274
S. pneumoniae D39V [6], first compound 0.0078 µg/mL, partner 0.005 µg/mL | ≥ 1
S. pneumoniae D39V [6], first compound 0.0078 µg/mL, partner 0.01 µg/mL | 0.981
S. pneumoniae D39V [6], first compound 0.0078 µg/mL, partner 0.02 µg/mL | ≥ 1
S. pneumoniae D39V [6], first compound 0.014 µg/mL, partner 0.0312 µg/mL | 0.137
S. pneumoniae D39V [6], first compound 0.014 µg/mL, partner 0.0625 µg/mL | 0.0527
S. pneumoniae D39V [6], first compound 0.014 µg/mL, partner 0.125 µg/mL | 0.0539
S. pneumoniae D39V [6], first compound 0.0155 µg/mL, partner 0.005 µg/mL | 0.987
S. pneumoniae D39V [6], first compound 0.0155 µg/mL, partner 0.01 µg/mL | 0.971
S. pneumoniae D39V [6], first compound 0.0155 µg/mL, partner 0.02 µg/mL | ≥ 1
S. pneumoniae D39V [6], first compound 0.028 µg/mL, partner 0.0312 µg/mL | 0.077
S. pneumoniae D39V [6], first compound 0.028 µg/mL, partner 0.0625 µg/mL | 0.0286
S. pneumoniae D39V [6], first compound 0.028 µg/mL, partner 0.125 µg/mL | 0.0219
S. pneumoniae D39V [6], first compound 0.031 µg/mL, partner 0.02 µg/mL | 0.805

fitness, S. aureus DSM 20231 [4], one replicate
Settings | first compound 0.125 µg/mL | first compound 0.25 µg/mL | first compound 0.5 µg/mL
partner 0.06 µg/mL | 0.645 | 0.622 | 0.579
partner 0.12 µg/mL | 0.469 | 0.521 | 0.482

CO/N=C(\C(=O)N[C@@H]1C(=O)N2C(C(=O)[O-])=C(C[N+]3(C)CCCC3)CS[C@H]12)c1csc(N)n1 [Cefepime] + COc1ccc(C[C@H](N)C(=O)N[C@H]2[C@@H](O)[C@H](n3cnc4c(N(C)C)ncnc43)O[C@@H]2CO)cc1 [Puromycin]
Settings | Bliss interaction score
B. subtilis 168 | 0.0941
S. aureus DSM 20231 [1] | 0.0605
S. aureus Newman [2] | -0.0741
S. pneumoniae D39V [3] | 0.132

Settings | fitness
S. aureus DSM 20231 [4], first compound 0.125 µg/mL, partner 0.39 µg/mL | 0.867
S. aureus DSM 20231 [4], first compound 0.125 µg/mL, partner 0.78 µg/mL | ≥ 1
S. aureus DSM 20231 [4], first compound 0.125 µg/mL, partner 1.56 µg/mL | 0.965
S. aureus DSM 20231 [4], first compound 0.25 µg/mL, partner 0.39 µg/mL | 0.932
S. aureus DSM 20231 [4], first compound 0.25 µg/mL, partner 0.78 µg/mL | 0.951
S. aureus DSM 20231 [4], first compound 0.25 µg/mL, partner 1.56 µg/mL | 0.924
S. aureus DSM 20231 [4], first compound 0.5 µg/mL, partner 0.78 µg/mL | 0.952
S. aureus DSM 20231 [4], first compound 0.5 µg/mL, partner 1.56 µg/mL | 0.907
S. aureus Newman [5], first compound 0.125 µg/mL, partner 0.39 µg/mL | 0.898
S. aureus Newman [5], first compound 0.125 µg/mL, partner 0.78 µg/mL | 0.94
S. aureus Newman [5], first compound 0.125 µg/mL, partner 1.56 µg/mL | 0.9
S. aureus Newman [5], first compound 0.25 µg/mL, partner 0.39 µg/mL | 0.831
S. aureus Newman [5], first compound 0.25 µg/mL, partner 0.78 µg/mL | 0.865
S. aureus Newman [5], first compound 0.25 µg/mL, partner 1.56 µg/mL | 0.865
S. aureus Newman [5], first compound 0.5 µg/mL, partner 0.39 µg/mL | 0.728
S. aureus Newman [5], first compound 0.5 µg/mL, partner 0.78 µg/mL | 0.764
S. aureus Newman [5], first compound 0.5 µg/mL, partner 1.56 µg/mL | 0.775
S. pneumoniae D39V [6], first compound 0.007 µg/mL, partner 1 µg/mL | ≥ 1
S. pneumoniae D39V [6], first compound 0.007 µg/mL, partner 2 µg/mL | 0.993
S. pneumoniae D39V [6], first compound 0.007 µg/mL, partner 4 µg/mL | 0.873
S. pneumoniae D39V [6], first compound 0.014 µg/mL, partner 1 µg/mL | ≥ 1
S. pneumoniae D39V [6], first compound 0.014 µg/mL, partner 2 µg/mL | ≥ 1
S. pneumoniae D39V [6], first compound 0.014 µg/mL, partner 4 µg/mL | 0.876
S. pneumoniae D39V [6], first compound 0.028 µg/mL, partner 1 µg/mL | 0.961
S. pneumoniae D39V [6], first compound 0.028 µg/mL, partner 2 µg/mL | 0.944
S. pneumoniae D39V [6], first compound 0.028 µg/mL, partner 4 µg/mL | 0.771

fitness, one replicate
Settings | first compound 0.0078 µg/mL | first compound 0.0155 µg/mL | first compound 0.031 µg/mL | first compound 0.125 µg/mL | first compound 0.25 µg/mL | first compound 0.5 µg/mL
S. aureus DSM 20231 [4], partner 3.12 µg/mL | – | – | – | 0.956 | 0.911 | 0.871
S. aureus DSM 20231 [4], partner 6.24 µg/mL | – | – | – | 0.781 | 0.857 | 0.716
S. pneumoniae D39V [6], partner 1 µg/mL | 0.979 | 0.896 | 0.42 | – | – | –
S. pneumoniae D39V [6], partner 2 µg/mL | 0.927 | 0.881 | 0.449 | – | – | –
S. pneumoniae D39V [6], partner 4 µg/mL | 0.868 | 0.845 | 0.314 | – | – | –
